{
  "source": "ChEMBL document CHEMBL1909046",
  "about": "“DrugMatrix in vitro pharmacology data”",
  "data": [
    {"test_system": "not listed separately", "test": "DRUGMATRIX: beta-Lactamase enzyme inhibition (substrate: Nitrocefin)", "set-up": "species or system Bacillus cereus", "settings": "Not Active = under 50% inhibition at 10 µM", "values": [
      {"smiles": "C#C[C@]1(O)CC[C@H]2[C@@H]3CCC4=CC(=O)CC[C@]4(C)[C@H]3CC[C@@]21C", "note": "[ETHISTERONE]", "IC50": "Not Active", "Ki": "Not Active"},
      {"smiles": "CC(O)(P(=O)(O)O)P(=O)(O)O", "note": "[ETIDRONIC ACID]", "IC50": "Not Active", "Ki": "Not Active"},
      {"smiles": "CN1CCN(c2c(F)cc3c(=O)c(C(=O)O)cn(CCF)c3c2F)CC1", "note": "[FLEROXACIN]", "IC50": "Not Active", "Ki": "Not Active"},
      {"smiles": "O=c1[nH]c(=O)n([C@H]2C[C@H](O)[C@@H](CO)O2)cc1F", "note": "[FLOXURIDINE]", "IC50": "Not Active", "Ki": "Not Active"},
      {"smiles": "COC(=O)Nc1nc2cc(C(=O)c3ccc(F)cc3)ccc2[nH]1", "note": "[FLUBENDAZOLE]", "IC50": "Not Active", "Ki": "Not Active"},
      {"smiles": "CC(=O)OCC(=O)[C@@]1(O)CC[C@H]2[C@@H]3CCC4=CC(=O)CC[C@]4(C)[C@@]3(F)[C@@H](O)C[C@@]21C", "note": "[FLUDROCORTISONE ACETATE]", "IC50": "Not Active", "Ki": "Not Active"}
    ]},
    {"molecular_target": "5-hydroxytryptamine receptor 4 (Cavia porcellus, UniProt O70528)", "sequence (O70528 whole entry)": "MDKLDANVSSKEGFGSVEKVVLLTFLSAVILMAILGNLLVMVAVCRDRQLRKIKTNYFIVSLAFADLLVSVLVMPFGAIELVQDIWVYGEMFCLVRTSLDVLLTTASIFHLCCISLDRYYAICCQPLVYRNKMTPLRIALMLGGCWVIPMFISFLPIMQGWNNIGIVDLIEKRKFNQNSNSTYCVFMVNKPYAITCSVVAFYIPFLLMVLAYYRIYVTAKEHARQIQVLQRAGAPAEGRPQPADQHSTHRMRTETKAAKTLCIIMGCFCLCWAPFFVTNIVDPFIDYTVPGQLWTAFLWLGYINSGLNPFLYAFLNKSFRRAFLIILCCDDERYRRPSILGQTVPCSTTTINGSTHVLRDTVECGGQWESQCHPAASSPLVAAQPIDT", "format": "cell membranes, Dunkin-Hartley, Striatum, Membrane", "settings": "not given", "values": [
      {"smiles": "C#C[C@]1(O)CC[C@H]2[C@@H]3CCC4=CC(=O)CC[C@]4(C)[C@H]3CC[C@@]21C", "note": "[ETHISTERONE]", "IC50": "Not Active"},
      {"smiles": "CC(O)(P(=O)(O)O)P(=O)(O)O", "note": "[ETIDRONIC ACID]", "IC50": "Not Active"},
      {"smiles": "CN1CCN(c2c(F)cc3c(=O)c(C(=O)O)cn(CCF)c3c2F)CC1", "note": "[FLEROXACIN]", "IC50": "Not Active"},
      {"smiles": "O=c1[nH]c(=O)n([C@H]2C[C@H](O)[C@@H](CO)O2)cc1F", "note": "[FLOXURIDINE]", "IC50": "Not Active"},
      {"smiles": "COC(=O)Nc1nc2cc(C(=O)c3ccc(F)cc3)ccc2[nH]1", "note": "[FLUBENDAZOLE]", "IC50": "Not Active"},
      {"smiles": "CC(=O)OCC(=O)[C@@]1(O)CC[C@H]2[C@@H]3CCC4=CC(=O)CC[C@]4(C)[C@@]3(F)[C@@H](O)C[C@@]21C", "note": "[FLUDROCORTISONE ACETATE]", "IC50": "Not Active"}
    ]},
    {"molecular_target": "Cannabinoid receptor 1 (Homo sapiens, UniProt P21554)", "sequence (P21554 whole entry)": "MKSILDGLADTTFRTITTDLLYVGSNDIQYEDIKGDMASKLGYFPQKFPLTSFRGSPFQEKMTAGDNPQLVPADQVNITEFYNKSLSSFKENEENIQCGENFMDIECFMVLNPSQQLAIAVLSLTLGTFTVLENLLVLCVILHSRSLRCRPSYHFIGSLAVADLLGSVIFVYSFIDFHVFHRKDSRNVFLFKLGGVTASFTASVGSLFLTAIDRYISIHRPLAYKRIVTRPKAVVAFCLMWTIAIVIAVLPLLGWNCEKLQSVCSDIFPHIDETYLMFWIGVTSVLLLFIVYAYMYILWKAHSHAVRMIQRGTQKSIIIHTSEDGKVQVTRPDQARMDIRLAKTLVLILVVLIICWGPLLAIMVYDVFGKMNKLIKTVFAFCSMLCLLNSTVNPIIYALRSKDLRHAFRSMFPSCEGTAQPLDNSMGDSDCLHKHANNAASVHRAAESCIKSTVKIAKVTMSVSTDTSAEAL", "format": "cell membranes, Chem-1, Membrane", "settings": "chem-1", "values": [
      {"smiles": "C#C[C@]1(O)CC[C@H]2[C@@H]3CCC4=CC(=O)CC[C@]4(C)[C@H]3CC[C@@]21C", "note": "[ETHISTERONE]", "IC50": "Not Active"},
      {"smiles": "CC(O)(P(=O)(O)O)P(=O)(O)O", "note": "[ETIDRONIC ACID]", "IC50": "Not Active"},
      {"smiles": "CN1CCN(c2c(F)cc3c(=O)c(C(=O)O)cn(CCF)c3c2F)CC1", "note": "[FLEROXACIN]", "IC50": "Not Active"},
      {"smiles": "O=c1[nH]c(=O)n([C@H]2C[C@H](O)[C@@H](CO)O2)cc1F", "note": "[FLOXURIDINE]", "IC50": "Not Active"},
      {"smiles": "COC(=O)Nc1nc2cc(C(=O)c3ccc(F)cc3)ccc2[nH]1", "note": "[FLUBENDAZOLE]", "IC50": "Not Active"},
      {"smiles": "CC(=O)OCC(=O)[C@@]1(O)CC[C@H]2[C@@H]3CCC4=CC(=O)CC[C@]4(C)[C@@]3(F)[C@@H](O)C[C@@]21C", "note": "[FLUDROCORTISONE ACETATE]", "IC50": "Not Active"}
    ]},
    {"molecular_target": "T1, Endothelin-1 receptor (Homo sapiens, UniProt P25101)", "T1 sequence (P25101 whole entry)": "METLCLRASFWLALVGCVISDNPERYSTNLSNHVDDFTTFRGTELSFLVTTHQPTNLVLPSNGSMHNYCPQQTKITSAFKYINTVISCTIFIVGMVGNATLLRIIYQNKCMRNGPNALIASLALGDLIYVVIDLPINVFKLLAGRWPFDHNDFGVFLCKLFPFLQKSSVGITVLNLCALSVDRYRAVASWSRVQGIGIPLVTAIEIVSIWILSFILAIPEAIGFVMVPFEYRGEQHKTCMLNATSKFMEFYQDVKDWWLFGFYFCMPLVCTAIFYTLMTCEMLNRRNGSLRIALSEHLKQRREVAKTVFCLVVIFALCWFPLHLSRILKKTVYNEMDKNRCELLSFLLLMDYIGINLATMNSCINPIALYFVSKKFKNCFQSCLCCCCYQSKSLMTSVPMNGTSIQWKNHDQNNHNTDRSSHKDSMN", "format": "cell membranes, Membrane", "settings": "cho-k1", "values": [
      {"smiles": "C#C[C@]1(O)CC[C@H]2[C@@H]3CCC4=CC(=O)CC[C@]4(C)[C@H]3CC[C@@]21C", "note": "[ETHISTERONE]", "IC50": "Not Active"},
      {"smiles": "CC(O)(P(=O)(O)O)P(=O)(O)O", "note": "[ETIDRONIC ACID]", "IC50": "Not Active"},
      {"smiles": "CN1CCN(c2c(F)cc3c(=O)c(C(=O)O)cn(CCF)c3c2F)CC1", "note": "[FLEROXACIN]", "IC50": "Not Active"},
      {"smiles": "O=c1[nH]c(=O)n([C@H]2C[C@H](O)[C@@H](CO)O2)cc1F", "note": "[FLOXURIDINE]", "IC50": "Not Active"},
      {"smiles": "COC(=O)Nc1nc2cc(C(=O)c3ccc(F)cc3)ccc2[nH]1", "note": "[FLUBENDAZOLE]", "IC50": "Not Active"},
      {"smiles": "CC(=O)OCC(=O)[C@@]1(O)CC[C@H]2[C@@H]3CCC4=CC(=O)CC[C@]4(C)[C@@]3(F)[C@@H](O)C[C@@]21C", "note": "[FLUDROCORTISONE ACETATE]", "IC50": "Not Active"}
    ]},
    {"molecular_target": "Melanocortin receptor 5 (Homo sapiens, UniProt P33032)", "sequence (P33032 whole entry)": "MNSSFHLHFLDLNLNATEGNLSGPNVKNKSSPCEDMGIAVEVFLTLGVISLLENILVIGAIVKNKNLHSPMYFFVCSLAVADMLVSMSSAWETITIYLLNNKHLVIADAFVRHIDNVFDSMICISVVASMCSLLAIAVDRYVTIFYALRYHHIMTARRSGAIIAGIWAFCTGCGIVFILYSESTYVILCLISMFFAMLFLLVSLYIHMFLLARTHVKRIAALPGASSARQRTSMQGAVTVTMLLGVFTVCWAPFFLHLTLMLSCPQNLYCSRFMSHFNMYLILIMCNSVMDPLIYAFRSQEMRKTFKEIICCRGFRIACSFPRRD", "format": "cell membranes, HEK293, Membrane", "settings": "hek293", "values": [
      {"smiles": "C#C[C@]1(O)CC[C@H]2[C@@H]3CCC4=CC(=O)CC[C@]4(C)[C@H]3CC[C@@]21C", "note": "[ETHISTERONE]", "IC50": "Not Active"},
      {"smiles": "CC(O)(P(=O)(O)O)P(=O)(O)O", "note": "[ETIDRONIC ACID]", "IC50": "Not Active"},
      {"smiles": "CN1CCN(c2c(F)cc3c(=O)c(C(=O)O)cn(CCF)c3c2F)CC1", "note": "[FLEROXACIN]", "IC50": "Not Active"},
      {"smiles": "O=c1[nH]c(=O)n([C@H]2C[C@H](O)[C@@H](CO)O2)cc1F", "note": "[FLOXURIDINE]", "IC50": "Not Active"},
      {"smiles": "COC(=O)Nc1nc2cc(C(=O)c3ccc(F)cc3)ccc2[nH]1", "note": "[FLUBENDAZOLE]", "IC50": "Not Active"},
      {"smiles": "CC(=O)OCC(=O)[C@@]1(O)CC[C@H]2[C@@H]3CCC4=CC(=O)CC[C@]4(C)[C@@]3(F)[C@@H](O)C[C@@]21C", "note": "[FLUDROCORTISONE ACETATE]", "IC50": "Not Active"}
    ]},
    {"molecular_target": "Mitogen-activated protein kinase 1 (Homo sapiens, UniProt P28482)", "sequence (P28482 whole entry)": "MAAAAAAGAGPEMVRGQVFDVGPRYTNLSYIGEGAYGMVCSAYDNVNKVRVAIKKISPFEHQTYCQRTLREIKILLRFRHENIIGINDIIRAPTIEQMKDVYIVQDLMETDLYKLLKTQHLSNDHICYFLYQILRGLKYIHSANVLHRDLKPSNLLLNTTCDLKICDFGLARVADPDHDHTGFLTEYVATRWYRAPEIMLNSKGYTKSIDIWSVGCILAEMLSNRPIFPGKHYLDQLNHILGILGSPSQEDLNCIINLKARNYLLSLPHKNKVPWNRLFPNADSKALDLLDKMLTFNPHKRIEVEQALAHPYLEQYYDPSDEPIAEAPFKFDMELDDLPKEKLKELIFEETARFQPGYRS", "test": "DRUGMATRIX: Protein Serine/Threonine Kinase, ERK2 enzyme inhibition (substrate: Myelin Basic Protein)", "set-up": "species or system Escherichia coli", "settings": "Not Active = under 50% inhibition at 10 µM", "values": [
      {"smiles": "C#C[C@]1(O)CC[C@H]2[C@@H]3CCC4=CC(=O)CC[C@]4(C)[C@H]3CC[C@@]21C", "note": "[ETHISTERONE]", "IC50": "Not Active"},
      {"smiles": "CC(O)(P(=O)(O)O)P(=O)(O)O", "note": "[ETIDRONIC ACID]", "IC50": "Not Active"},
      {"smiles": "CN1CCN(c2c(F)cc3c(=O)c(C(=O)O)cn(CCF)c3c2F)CC1", "note": "[FLEROXACIN]", "IC50": "Not Active"},
      {"smiles": "O=c1[nH]c(=O)n([C@H]2C[C@H](O)[C@@H](CO)O2)cc1F", "note": "[FLOXURIDINE]", "IC50": "Not Active"},
      {"smiles": "COC(=O)Nc1nc2cc(C(=O)c3ccc(F)cc3)ccc2[nH]1", "note": "[FLUBENDAZOLE]", "IC50": "Not Active"},
      {"smiles": "CC(=O)OCC(=O)[C@@]1(O)CC[C@H]2[C@@H]3CCC4=CC(=O)CC[C@]4(C)[C@@]3(F)[C@@H](O)C[C@@]21C", "note": "[FLUDROCORTISONE ACETATE]", "IC50": "Not Active"}
    ]},
    {"molecular_target": "T2, 5-hydroxytryptamine receptor 1A (Rattus norvegicus, UniProt P19327)", "T2 sequence (P19327 whole entry)": "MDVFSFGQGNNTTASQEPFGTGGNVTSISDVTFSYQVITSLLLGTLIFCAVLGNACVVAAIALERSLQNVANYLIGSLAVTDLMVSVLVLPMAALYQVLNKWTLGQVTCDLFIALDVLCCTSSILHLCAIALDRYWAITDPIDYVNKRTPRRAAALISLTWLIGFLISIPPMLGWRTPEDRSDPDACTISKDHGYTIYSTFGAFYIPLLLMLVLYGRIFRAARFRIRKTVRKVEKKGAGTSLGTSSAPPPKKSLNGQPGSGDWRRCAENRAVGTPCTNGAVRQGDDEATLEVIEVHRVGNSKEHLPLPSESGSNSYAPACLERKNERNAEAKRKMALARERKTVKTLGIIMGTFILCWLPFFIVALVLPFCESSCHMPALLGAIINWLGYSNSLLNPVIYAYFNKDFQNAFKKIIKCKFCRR", "format": "cell membranes, CHO-K1, Membrane", "settings": "cho-k1", "values": [
      {"smiles": "C#C[C@]1(O)CC[C@H]2[C@@H]3CCC4=CC(=O)CC[C@]4(C)[C@H]3CC[C@@]21C", "note": "[ETHISTERONE]", "IC50": "Not Active"},
      {"smiles": "CC(O)(P(=O)(O)O)P(=O)(O)O", "note": "[ETIDRONIC ACID]", "IC50": "Not Active"},
      {"smiles": "CN1CCN(c2c(F)cc3c(=O)c(C(=O)O)cn(CCF)c3c2F)CC1", "note": "[FLEROXACIN]", "IC50": "Not Active"},
      {"smiles": "O=c1[nH]c(=O)n([C@H]2C[C@H](O)[C@@H](CO)O2)cc1F", "note": "[FLOXURIDINE]", "IC50": "Not Active"},
      {"smiles": "COC(=O)Nc1nc2cc(C(=O)c3ccc(F)cc3)ccc2[nH]1", "note": "[FLUBENDAZOLE]", "IC50": "Not Active"},
      {"smiles": "CC(=O)OCC(=O)[C@@]1(O)CC[C@H]2[C@@H]3CCC4=CC(=O)CC[C@]4(C)[C@@]3(F)[C@@H](O)C[C@@]21C", "note": "[FLUDROCORTISONE ACETATE]", "IC50": "Not Active"}
    ]},
    {"molecular_target": "Cytochrome P450 2D6 (Homo sapiens, UniProt P10635)", "sequence (P10635 whole entry)": "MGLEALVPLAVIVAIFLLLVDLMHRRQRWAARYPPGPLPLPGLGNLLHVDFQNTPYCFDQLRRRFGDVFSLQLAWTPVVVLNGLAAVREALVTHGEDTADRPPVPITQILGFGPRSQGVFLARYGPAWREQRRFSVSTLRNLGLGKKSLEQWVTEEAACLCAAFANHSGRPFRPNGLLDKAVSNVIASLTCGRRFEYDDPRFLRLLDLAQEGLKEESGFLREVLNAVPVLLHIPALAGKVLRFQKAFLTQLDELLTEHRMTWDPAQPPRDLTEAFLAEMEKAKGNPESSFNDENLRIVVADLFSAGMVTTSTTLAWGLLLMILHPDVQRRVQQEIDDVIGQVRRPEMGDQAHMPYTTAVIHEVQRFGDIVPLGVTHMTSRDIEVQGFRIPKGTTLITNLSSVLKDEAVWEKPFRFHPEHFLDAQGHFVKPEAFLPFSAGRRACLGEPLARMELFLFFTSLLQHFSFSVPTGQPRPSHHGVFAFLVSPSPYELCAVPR", "settings": "bti-tn-5b1-4", "values": [
      {"smiles": "C#C[C@]1(O)CC[C@H]2[C@@H]3CCC4=CC(=O)CC[C@]4(C)[C@H]3CC[C@@]21C", "note": "[ETHISTERONE]", "IC50": "Not Active", "Ki": "Not Active"},
      {"smiles": "CC(O)(P(=O)(O)O)P(=O)(O)O", "note": "[ETIDRONIC ACID]", "IC50": "Not Active", "Ki": "Not Active"},
      {"smiles": "CN1CCN(c2c(F)cc3c(=O)c(C(=O)O)cn(CCF)c3c2F)CC1", "note": "[FLEROXACIN]", "IC50": "Not Active", "Ki": "Not Active"},
      {"smiles": "O=c1[nH]c(=O)n([C@H]2C[C@H](O)[C@@H](CO)O2)cc1F", "note": "[FLOXURIDINE]", "IC50": "Not Active", "Ki": "Not Active"},
      {"smiles": "COC(=O)Nc1nc2cc(C(=O)c3ccc(F)cc3)ccc2[nH]1", "note": "[FLUBENDAZOLE]", "IC50": "Not Active", "Ki": "Not Active"},
      {"smiles": "CC(=O)OCC(=O)[C@@]1(O)CC[C@H]2[C@@H]3CCC4=CC(=O)CC[C@]4(C)[C@@]3(F)[C@@H](O)C[C@@]21C", "note": "[FLUDROCORTISONE ACETATE]", "IC50": "Not Active", "Ki": "Not Active"}
    ]}
  ]
}
